# Structures can show the parent of a compound that is named as a salt.
# Target: T1, Human MOR (Homo sapiens, UniProt P35372)
# T1 construct: expressed in transfected cells; host or cells: HEK-293T
# Assay: cell-based
# Settings: not given
# Excerpt: Transfection. Human or mouse MOR cDNA was transfected alongside GαoB with RLuc8 inserted at position 91 (GαoB-RLuc8), Gβ1 (β1), and Gγ2 fused to the full-length mVenus at its N terminus (mVenus-γ2) into HEK-293T cells (5×10^6 cells/plate) in 10-cm dishes using PEI (Polysciences Inc.; Warrington, Pa.) in a 1:1 ratio diluted in Opti-MEM (Life Technologies Corp.; Grand Island, N.Y.) to assay for G protein activation as described previously (Rives, M.-L. et al. J. Biol. Chem. 2012, 287, 27050-4; Negri, A.; Rives, M.-L.; Caspers, M. J. et al. J. Chem. Inf. Model. 2013, 53, 521-526). Cells were maintained in the Dulbecco's Modified Eagle Medium (high glucose #11965; Life Technologies) supplemented with 10% FBS (Premium Select, Atlanta Biologicals; Atlanta, Ga.) and 100 U/mL penicillin and 100 μg/mL streptomycin (#15140, Life Technologies). After 24 hours the media was changed, and the experiment was performed 24 hours later (48 hours after transfection).
# BRET. Transfected cells were dissociated and resuspended in phosphate-buffered saline (PBS). Approximately 200,000 cells/well were added to a black-framed, white well 96-well plate (#60050; Perkin Elmer; Waltham, Mass.). The microplate was centrifuged and the cells were resuspended in PBS. Then 5 μM of the luciferase substrate coelenterazine H was added to each well for 5 minutes. Following coelenterazine H addition, ligands were added and the BRET signal was measured at 5 minutes on a PHERAstar FS plate reader. Quantification of the BRET signal required calculating the ratio of the light emitted by the energy acceptor, mVenus (510-540 nm), over the light emitted by the energy donor, RLuc8 (485 nm). […] Dose response curves were fit using three-parameter logistics equation in GraphPad Prism 6.
# T1 sequence (P35372 whole entry): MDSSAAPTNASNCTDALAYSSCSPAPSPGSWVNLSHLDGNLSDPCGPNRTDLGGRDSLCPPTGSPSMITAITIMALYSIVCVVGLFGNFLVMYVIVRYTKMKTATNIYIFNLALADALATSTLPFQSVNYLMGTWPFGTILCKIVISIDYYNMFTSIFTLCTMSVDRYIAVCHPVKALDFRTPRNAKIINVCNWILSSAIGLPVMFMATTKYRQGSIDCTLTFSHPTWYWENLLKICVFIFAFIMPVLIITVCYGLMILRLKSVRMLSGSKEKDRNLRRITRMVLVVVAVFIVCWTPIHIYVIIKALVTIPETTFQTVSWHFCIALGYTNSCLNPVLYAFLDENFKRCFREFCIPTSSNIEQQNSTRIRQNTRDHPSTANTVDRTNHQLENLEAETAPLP
row,SMILES,EC50 [µM]
1,COCCCNC1c2cc(Br)ccc2N(C)S(=O)(=O)c2cc(Cl)ccc21 (centres unmarked) [compound 11],< 10
2,"CCOC(=O)CCCCCCNC1c2ccccc2N(CC)S(=O)(=O)c2ccccc21 (centres unmarked) [compound 66, Ethyl 7-((6-ethyl-5,5-dioxido-6,11-dihydrodibenzo[c,f][1,2]thiazepin-11-yl)amino)heptanoate]",< 10
3,"COCC(C)CNC1c2ccccc2N(C)S(=O)(=O)c2cc(Cl)ccc21 (mixture of isomers) [compound 68, 3-Chloro-11-((3-methoxy-2-methylpropyl)amino)-6-methyl-6,11-dihydrodibenzo[c,f][1,2]thiazepine 5,5-dioxide]",< 10
4,"COCCCNC1c2ccccc2N(C)S(=O)(=O)c2cc(F)ccc21 (centres unmarked) [compound 40, 3-Fluoro-11-((3-methoxypropyl)amino)-6-methyl-6,11-dihydrodibenzo[c,f] [1,2]thiazepine 5,5-dioxide]",5.53 ± 0.25
5,"CCOC(=O)CCCCCCNC1c2ccccc2N(C)S(=O)(=O)c2ccc(Cl)cc21 (centres unmarked) [compound 61, Ethyl 7-((2-chloro-6-methyl-5,5-dioxido-6,11-dihydrodibenzo[c,f] [1,2]thiazepin-11-yl)amino)heptanoate]",< 10
6,"COCCCNC1c2ccccc2N(C)S(=O)(=O)c2cc(Oc3ccccc3)ccc21 (centres unmarked) [compound 29, 11-((3-Methoxypropyl)amino)-6-methyl-3-phenoxy-6,11-dihydrodibenzo [c,f][1,2]thiazepine 5,5-dioxide]",< 10
7,"CCOCCCNC1c2ccccc2N(C)S(=O)(=O)c2cc(I)ccc21 (centres unmarked) [compound 76, 11-((3-Ethoxypropyl)amino)-3-iodo-6-methyl-6,11-dihydrodibenzo [c,f][1,2]thiazepine 5,5-dioxide]",0.145
8,"COCCCNC1c2ccccc2N(C)S(=O)(=O)c2cc(I)ccc21 (centres unmarked) [compound 48, 3-Iodo-11-((3-methoxypropyl)amino)-6-methyl-6,11-dihydrodibenzo [c,f][1,2]thiazepine 5,5-dioxide]",0.0152 ± 0.0069
9,"CN1c2ccccc2C(NCCCCCCC2=NCCO2)c2ccc(Cl)cc2S1(=O)=O (centres unmarked) [compound 58, 3-Chloro-11-((6-(4,5-dihydrooxazol-2-yl)hexyl)amino)-6-methyl-6,11-dihydrodibenzo[c,f][1,2]thiazepine 5,5-dioxide]",< 10
10,COCCCNC1c2ccccc2N(C)S(=O)(=O)c2ccc(Cl)cc21 (centres unmarked) [compound 60],< 20
11,"COCCCNC1c2ccc(Cl)cc2S(=O)(=O)N(C)c2ccsc21 (centres unmarked) [compound 77, 7-Chloro-10-((3-methoxypropyl)amino)-4-methyl-4,10-dihydrobenzo[f]thieno[3,2-c][1,2]thiazepine 5,5-dioxide]",< 10
12,"COCCCNC1c2ccccc2N(C)S(=O)(=O)c2cc([S+](C)[O-])ccc21 (mixture of isomers) [compound 55, 11-((3-Methoxypropyl)amino)-6-methyl-3-(methylsulfinyl)-6,11-dihydrodibenzo[c,f][1,2]thiazepine 5,5-dioxide]",< 20
13,"COCCOCCNC1c2ccccc2N(C)S(=O)(=O)c2cc(Cl)ccc21 (centres unmarked) [compound 36, 3-Chloro-11-((2-(2-methoxyethoxy)ethyl)amino)-6-methyl-6,11-dihydrodibenzo[c,f][1,2]thiazepine 5,5-dioxide]",< 10
14,"CCOC(=O)CCCCCCNC1c2ccc(Cl)cc2N(C)S(=O)(=O)c2ccccc21 (centres unmarked) [compound 70, Ethyl 7-((8chloro-6-methyl-5,5-dioxido-6,11-dihydrodibenzo[c,f][1,2]thiazepin-11-yl)amino)heptanoate]",< 10
15,"CN1c2ccccc2C(NCCCCCCC(=O)NCCO)c2ccc(Cl)cc2S1(=O)=O (centres unmarked) [compound 57, 7-((3-Chloro-6-methyl-5,5-dioxido-6,11-dihydrodibenzo [c,f][1,2]thiazepin-11-yl)amino)-N-(2-hydroxyethyl) heptanamide]",< 10
16,"CCOC(=O)CCCCCCNC1c2ccccc2N(C)S(=O)(=O)c2cc(Cl)ccc21 (centres unmarked) [compound 34, Ethyl 7-((3-chloro-6-methyl-5,5-dioxido-6,11-dihydrodibenzo[c,f][1,2]thiazepin-11-yl)amino)heptanoate]",0.657 ± 0.366
17,"CC(=O)OCCCCCCNC1c2ccccc2N(C)S(=O)(=O)c2cc(Cl)ccc21 (centres unmarked) [compound 13, 6-((3-Chloro-6-methyl-5,5-dioxido-6,11-dihydrodibenzo[c,f][1,2]thiazepin-11-yl)amino)hexyl acetate]",< 10

row,SMILES,EC50 [µM]
1,"CCOCCCNC1c2ccc(Br)cc2S(=O)(=O)N(C)c2ccsc21 (centres unmarked) [compound 73, 7-Bromo-10-((3-ethoxypropyl)amino)-4-methyl-4,10-dihydrobenzo[f]thieno[3,2-c][1,2]thiazepine 5,5-dioxide]",< 10
2,"COCCCNC1c2ccccc2N(C)S(=O)(=O)c2ccccc21 (centres unmarked) [compound 10, 11-((3-Methoxypropyl)amino)-6-methyl-6,11-dihydrodibenzo[c,f][1,2]thiazepine 5,5-dioxide]",< 10
3,"CN1c2ccccc2C(NCCCCCO)c2ccc(Cl)cc2S1(=O)=O (centres unmarked) [compound 30, 3-Chloro-11-((5-hydroxypentyl)amino)-6-methyl-6,11-dihydrodibenzo [c,f][1,2]thiazepine 5,5-dioxide]",> 50
4,CN1c2ccccc2C(NCC2CCOC2)c2ccc(Cl)cc2S1(=O)=O (centres unmarked) [compound 46],< 10
5,"COCCCNC1c2ccccc2N(C)S(=O)(=O)c2cc(Br)ccc21 (centres unmarked) [compound 53, 3-Bromo-11-((3-methoxypropyl)amino)-6-methyl-6,11-dihydrodibenzo[c,f] [1,2]thiazepine 5,5-dioxide]",0.0741 ± 0.0179
6,"CN1c2ccccc2C(NCCOCCO)c2ccc(Cl)cc2S1(=O)=O (centres unmarked) [compound 25, 3-Chloro-11-((2-(2-hydroxyethoxy)ethyl)amino)-6-methyl-6,11-dihydrodibenzo[c,f][1,2]thiazepine 5,5-dioxide]",8.59 ± 0.5
7,"COCCCNC1c2ccccc2S(=O)(=O)N(C)c2ccsc21 (centres unmarked) [compound 7, 10-((3-Methoxypropyl)amino)-4-methyl-4,10-dihydrobenzo[f]thieno[3,2-c][1,2]thiazepine 5,5-dioxide]",< 10
8,"CN1c2ccccc2C(NCCCCCCC(=O)O)c2ccc(Br)cc2S1(=O)=O (centres unmarked) [compound 82, 7-((3-Bromo-6-methyl-5,5-dioxido-6,11-dihydrodibenzo[c,f][1,2]thiazepin-11-yl)amino)heptanoic acid hydrochloride salt]",0.122
9,"CCOC(=O)CCCCCCNC1c2ccccc2N(C)S(=O)(=O)c2cc(C)ccc21 (centres unmarked) [compound 14, Ethyl 7-((3,6-dimethyl-5,5-dioxido-6,11-dihydrodibenzo[c,f][1,2]thiazepin-11-yl)amino) heptanoate]",< 10
10,"CCOC(=O)CCCCCCNC1c2ccccc2N(C)S(=O)(=O)c2cc(Br)ccc21 (centres unmarked) [compound 81, Ethyl 7-((3-bromo-6-methyl-5,5-dioxido-6,11-dihydrodibenzo [c,f] [1,2]thiazepin-11-yl)amino)heptanoate]",0.573
11,"CN1c2ccccc2C(NCCCO)c2ccc(Cl)cc2S1(=O)=O (centres unmarked) [compound 83, 3-Chloro-11-((3-hydroxypropyl)amino)-6-methyl-6,11-dihydrodibenzo[c,f][1,2] iazepine 5,5-dioxide]",1.81
12,Cc1ccc2c(c1)S(=O)(=O)N(C)c1ccccc1C2NCCCCCCC(=O)O (centres unmarked) [compound 16],< 10
13,"CCOC(=O)CCCCCCNC1c2ccc(Br)cc2S(=O)(=O)N(C)c2ccsc21 (centres unmarked) [compound 74, Ethyl 7-((7-bromo-4-methyl-5,5-dioxido-4,10-dihydrobenzo[f]thieno[3,2-c][1,2]thiazepin-10-yl)amino)heptanoate]",< 10
14,CN1CCCC1CCNC1c2ccccc2N(C)S(=O)(=O)c2cc(Cl)ccc21 (centres unmarked) [compound 47],< 20
15,"COCCCNC1c2ccccc2S(=O)(=O)N(C)c2c(Br)csc21 (centres unmarked) [compound 43, 3-Bromo-10-((3-methoxypropyl)amino)-4-methyl-4,10-dihydrobenzo[f]thieno[3,2-c][1,2]thiazepine 5,5-dioxide]",< 20
16,"CCCCCCCNC1c2ccccc2N(C)S(=O)(=O)c2cc(Cl)ccc21 (centres unmarked) [compound 26, 3-Chloro-11-(heptylamino)-6-methyl-6,11-dihydrodibenzo [c,f][1,2]thiazepine 5,5-dioxide]",< 10

# Same assay, conditions: BRET G protein activation, HEK-293T; mean ± SEM of independent trials; read-out: EC50 Human MOR
row,SMILES,EC50 [µM]
1,"COCCCNC1c2ccccc2N(C)S(=O)(=O)c2cc(OCc3ccccc3)ccc21 (centres unmarked) [compound 75, 3-(Benzyloxy)-11-((3-methoxypropyl)amino)-6-methyl-6,11-dihydrodibenzo[c,f][1,2]thiazepine 5,5-dioxide]",> 20
2,"CCOCCCNC1c2ccccc2N(C)S(=O)(=O)c2cc(Cl)ccc21 (centres unmarked) [compound 37, 3-Chloro-11-((3-ethoxypropyl)amino)-6-methyl-6,11-dihydrodibenzo [c,f][1,2]thiazepine 5,5-dioxide]",0.893 ± 0.147
